Test results from patent publication US9944618B2, “Inhibiting neurotransmitter reuptake” (Mayo Foundation for Medical Education and Research, priority 2013, dated 2018).
Like-named read-outs stand apart in the source and are kept apart here.

Experiments:
CYP3A4 = CYP3A4 (Homo sapiens (Human), UniProt P08684); assay: Cytochrome P450 inhibition assay, recombinant CYP3A4 (BFC substrate); type: in vitro ADME; conditions: recombinant enzyme
Description: Recombinant enzymes, 3A4 and 2D6, generated using the ABL yeast expression system were used. […] The assay mixture also included K2HPO4 (pH 7.4; conc. 0.1 M) and NADPH (conc. 1 mM). The incubation time was 30 minutes, and the reference inhibitor was A-naphthoflavone. For CYP2D6, the enzyme amount was 2 pmol per well, and the substrate (7-methoxy-4-(aminomethyl)-coumarin; MAMC) was used at 20 μM. The assay mixture also included K2HPO4 (pH 7.4; conc. 0.1 M) and NADPH (conc. 0.06 mM). The incubation time was 35 minutes, and the reference inhibitor was quinidine.
Briefly, 0.6 μL of serially diluted compound was added to 75 μL water. 10 μL of diluted compound in water was then added to each assay plate. 20 μL of a K2HPO4, enzyme, and substrate mixture was added. After 10 minutes of room temperature pre-incubation, 10 μL of NADPH was added, and the plates were placed at 37° C. for 30 or 35 minutes depending on the enzyme being tested. After the incubation was complete, 20 μL of 0.1% Tris/ACN was added to the plate. The plate was read on a FluorStar fluorescence plate reader.

hERG = hERG (Homo sapiens (Human), UniProt Q12809); assay: Human ERG (hERG) assay, hERG currents in hERG-expressing CHO cells; type: cell-based; conditions: hERG-expressing CHO cells
Description: The voltage-dependent potassium channel encoded by the human ether-a-go-go-related gene (hERG) is believed to play a key role in repolarisation of the ventricular cardiac action potential. Changes in its activity, caused either by inherited mutations of the gene sequence or pharmacological modification, can lead to prolongation of action potential duration. This can lead to prolongation of the QT interval recorded in man on an electrocardiogram and to a potentially fatal cardiac arrhythmia known as Torsades de Pointes.
hERG currents were recorded from hERG-expressing CHO cells. The biophysical and pharmacological characterization of the hERG currents in these cells was performed.

[1] = pKa of basic centres (Table 1); type: physicochemical
[2] = biological target: human dopamine transporter (Homo sapiens (Human), UniProt Q01959); assay: Human DAT (dopamine transporter) uptake assay; type: cell-based; conditions: read-out: hDAT Ki
Method in brief: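 Uptake inhibition was measured in HEK293F cells transfected with human DAT, plated at ~60,000 cells/well and settled ≥3 h at 37 °C. Compounds came from 10 mM DMSO stocks. Read-out was uptake of a fluorescent neurotransmitter transporter dye in HBSS with 0.02 M HEPES, with dye level given as % of vendor reconstitution; n=3.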

[3] = biological target: human serotonin transporter (Homo sapiens (Human), UniProt P31645); assay: Human SERT (serotonin transporter) uptake assay; type: cell-based; conditions: read-out: hSERT Ki
Method in brief: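 HEK293F cells transfected with human SERT, about 60,000 per well, settled for ≥3 h at 37° C before compound addition. Uptake was followed with a fluorescent transporter dye in HBSS with 0.02 M HEPES. Background came from 10 μM fluoxetine, nomifensine was the control, n=3.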

[4] = biological target: human norepinephrine transporter (Homo sapiens (Human), UniProt P23975); assay: Human NET (norepinephrine transporter) uptake assay; type: cell-based; conditions: read-out: hNET Ki
Method in brief: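 HEK293F cells transfected with human NET were thawed, plated at about 60,000 cells/well and held at 37 °C for at least 3 h. Compounds came from 10 mM DMSO stocks, with nomifensine as control, in 1×HBSS/0.02 M HEPES. Uptake was followed with a neurotransmitter transporter dye, dosed as % of vendor reconstitution, in triplicate.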

CYP2D6 = CYP2D6 (Homo sapiens (Human), UniProt P10635); assay: Cytochrome P450 inhibition assay, recombinant CYP2D6 (MAMC substrate); type: in vitro ADME; conditions: recombinant enzyme
[5] = first base, e.g., an aliphatic primary, secondary, or tertiary amine, read-out: pKa (Base 1)
[6] = second base in the same molecule (if present), read-out: pKa (Base 2)
[7] = first base, e.g., an aliphatic primary, secondary, or tertiary amine

CYP3A4, sequence (P08684 whole entry): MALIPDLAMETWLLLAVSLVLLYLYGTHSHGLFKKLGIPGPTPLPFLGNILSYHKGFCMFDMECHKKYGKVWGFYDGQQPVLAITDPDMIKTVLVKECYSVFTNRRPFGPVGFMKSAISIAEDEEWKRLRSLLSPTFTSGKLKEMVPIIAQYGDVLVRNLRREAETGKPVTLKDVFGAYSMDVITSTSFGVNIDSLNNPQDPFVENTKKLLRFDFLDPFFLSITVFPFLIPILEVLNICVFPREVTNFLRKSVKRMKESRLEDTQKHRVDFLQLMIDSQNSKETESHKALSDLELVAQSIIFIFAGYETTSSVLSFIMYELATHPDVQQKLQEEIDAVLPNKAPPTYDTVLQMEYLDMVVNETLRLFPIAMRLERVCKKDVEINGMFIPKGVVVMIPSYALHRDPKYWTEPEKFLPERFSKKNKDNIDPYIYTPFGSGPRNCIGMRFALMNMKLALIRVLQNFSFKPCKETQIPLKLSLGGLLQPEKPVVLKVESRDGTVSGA
CYP2D6, sequence (P10635 whole entry): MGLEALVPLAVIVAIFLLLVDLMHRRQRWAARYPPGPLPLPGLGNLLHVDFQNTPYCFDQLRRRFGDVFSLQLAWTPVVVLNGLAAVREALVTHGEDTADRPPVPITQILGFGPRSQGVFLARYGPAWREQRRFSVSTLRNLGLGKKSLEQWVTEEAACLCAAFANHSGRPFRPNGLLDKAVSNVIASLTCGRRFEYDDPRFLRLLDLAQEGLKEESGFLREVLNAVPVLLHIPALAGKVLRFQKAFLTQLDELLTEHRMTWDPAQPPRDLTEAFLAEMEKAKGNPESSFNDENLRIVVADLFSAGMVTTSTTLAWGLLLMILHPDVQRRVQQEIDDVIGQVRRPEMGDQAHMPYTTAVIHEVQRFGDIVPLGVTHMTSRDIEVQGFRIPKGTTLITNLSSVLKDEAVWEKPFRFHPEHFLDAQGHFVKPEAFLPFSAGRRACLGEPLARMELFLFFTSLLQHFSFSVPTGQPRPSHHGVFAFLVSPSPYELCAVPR
human serotonin transporter, sequence (P31645 whole entry): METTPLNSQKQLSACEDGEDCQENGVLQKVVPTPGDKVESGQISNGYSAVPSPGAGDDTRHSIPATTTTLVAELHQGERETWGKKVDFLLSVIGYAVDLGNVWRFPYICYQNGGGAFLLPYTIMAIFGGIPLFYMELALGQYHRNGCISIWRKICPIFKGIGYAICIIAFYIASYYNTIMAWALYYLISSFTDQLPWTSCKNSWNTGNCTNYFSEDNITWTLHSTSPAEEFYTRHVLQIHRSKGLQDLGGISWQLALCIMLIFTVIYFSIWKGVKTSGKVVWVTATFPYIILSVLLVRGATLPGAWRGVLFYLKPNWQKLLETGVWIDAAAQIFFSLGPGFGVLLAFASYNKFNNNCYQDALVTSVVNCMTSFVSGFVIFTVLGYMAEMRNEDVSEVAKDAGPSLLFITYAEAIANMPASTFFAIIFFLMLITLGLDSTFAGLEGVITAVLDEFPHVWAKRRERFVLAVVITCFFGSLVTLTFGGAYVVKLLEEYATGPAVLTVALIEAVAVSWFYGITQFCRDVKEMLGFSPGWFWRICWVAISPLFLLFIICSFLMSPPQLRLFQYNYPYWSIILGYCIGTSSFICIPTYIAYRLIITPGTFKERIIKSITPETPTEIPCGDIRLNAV
human norepinephrine transporter, sequence (P23975 whole entry): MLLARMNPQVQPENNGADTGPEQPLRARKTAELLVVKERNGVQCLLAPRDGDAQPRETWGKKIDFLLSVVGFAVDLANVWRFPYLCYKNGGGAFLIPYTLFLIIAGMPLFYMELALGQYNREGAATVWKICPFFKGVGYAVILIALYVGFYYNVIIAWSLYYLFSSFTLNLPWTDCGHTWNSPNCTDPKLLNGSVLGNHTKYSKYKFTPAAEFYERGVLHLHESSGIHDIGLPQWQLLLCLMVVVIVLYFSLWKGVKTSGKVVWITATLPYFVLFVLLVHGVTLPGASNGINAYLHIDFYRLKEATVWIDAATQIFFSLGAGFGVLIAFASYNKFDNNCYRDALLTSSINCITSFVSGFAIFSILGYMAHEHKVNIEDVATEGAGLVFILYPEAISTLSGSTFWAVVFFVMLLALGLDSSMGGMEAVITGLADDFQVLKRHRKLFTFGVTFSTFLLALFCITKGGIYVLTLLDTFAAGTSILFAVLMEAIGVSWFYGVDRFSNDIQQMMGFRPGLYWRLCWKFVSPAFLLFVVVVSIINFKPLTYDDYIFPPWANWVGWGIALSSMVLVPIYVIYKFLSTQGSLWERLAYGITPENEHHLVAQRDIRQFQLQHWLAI
hERG, sequence (Q12809 whole entry): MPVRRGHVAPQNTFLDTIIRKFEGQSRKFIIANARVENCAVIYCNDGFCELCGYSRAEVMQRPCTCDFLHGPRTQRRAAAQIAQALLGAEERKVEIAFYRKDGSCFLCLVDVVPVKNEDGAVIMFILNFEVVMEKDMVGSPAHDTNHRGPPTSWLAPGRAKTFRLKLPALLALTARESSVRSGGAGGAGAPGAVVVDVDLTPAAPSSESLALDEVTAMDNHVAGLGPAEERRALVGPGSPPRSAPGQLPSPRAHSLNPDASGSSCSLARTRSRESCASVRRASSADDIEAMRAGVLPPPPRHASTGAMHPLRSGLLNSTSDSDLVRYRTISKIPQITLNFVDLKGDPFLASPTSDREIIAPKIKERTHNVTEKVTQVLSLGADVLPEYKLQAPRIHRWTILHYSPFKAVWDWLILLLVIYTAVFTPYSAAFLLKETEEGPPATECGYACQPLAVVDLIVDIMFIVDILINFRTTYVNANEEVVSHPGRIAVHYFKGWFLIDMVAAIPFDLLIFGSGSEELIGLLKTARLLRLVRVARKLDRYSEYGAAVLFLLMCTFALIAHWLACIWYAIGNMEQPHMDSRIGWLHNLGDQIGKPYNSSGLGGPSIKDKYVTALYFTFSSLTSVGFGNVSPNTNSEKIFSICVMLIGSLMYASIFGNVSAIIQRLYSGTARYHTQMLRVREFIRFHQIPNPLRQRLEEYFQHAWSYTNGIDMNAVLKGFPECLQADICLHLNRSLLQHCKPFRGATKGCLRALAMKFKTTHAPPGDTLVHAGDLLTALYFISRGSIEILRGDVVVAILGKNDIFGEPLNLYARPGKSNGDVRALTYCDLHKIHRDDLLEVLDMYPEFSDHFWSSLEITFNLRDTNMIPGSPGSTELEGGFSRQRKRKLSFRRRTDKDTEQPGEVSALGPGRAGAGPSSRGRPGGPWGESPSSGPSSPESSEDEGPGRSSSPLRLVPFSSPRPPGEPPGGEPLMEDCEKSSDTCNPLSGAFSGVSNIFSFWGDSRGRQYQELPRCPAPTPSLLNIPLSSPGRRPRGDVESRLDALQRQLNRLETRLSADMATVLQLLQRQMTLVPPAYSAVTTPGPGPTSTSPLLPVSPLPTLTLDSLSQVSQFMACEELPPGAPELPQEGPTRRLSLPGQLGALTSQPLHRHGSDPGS
human dopamine transporter, sequence (Q01959 whole entry): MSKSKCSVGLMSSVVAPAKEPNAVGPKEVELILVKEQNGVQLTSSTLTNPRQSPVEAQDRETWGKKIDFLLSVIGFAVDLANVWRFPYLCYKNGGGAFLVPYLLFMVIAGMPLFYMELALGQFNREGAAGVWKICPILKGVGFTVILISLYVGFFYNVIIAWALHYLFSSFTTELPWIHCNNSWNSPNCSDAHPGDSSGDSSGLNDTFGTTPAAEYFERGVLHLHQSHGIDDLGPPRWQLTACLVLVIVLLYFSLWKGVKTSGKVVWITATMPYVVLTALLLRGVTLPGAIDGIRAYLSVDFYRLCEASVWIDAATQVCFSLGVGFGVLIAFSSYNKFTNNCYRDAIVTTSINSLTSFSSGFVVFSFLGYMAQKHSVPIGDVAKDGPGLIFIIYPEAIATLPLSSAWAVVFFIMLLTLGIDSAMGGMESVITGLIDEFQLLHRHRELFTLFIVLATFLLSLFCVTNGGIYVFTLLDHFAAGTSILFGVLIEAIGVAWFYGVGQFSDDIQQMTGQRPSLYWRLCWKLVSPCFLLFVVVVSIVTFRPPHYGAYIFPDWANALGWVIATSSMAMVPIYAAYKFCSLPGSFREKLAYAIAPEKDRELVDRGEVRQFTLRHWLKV

Compound	IC50 (CYP3A4) [nM]	IC50 (hERG) [nM]	pKa [1, 5]	pKa [1, 6]	Ki [2] [nM]	Ki [3] [nM]	Ki [4] [nM]	IC50 (CYP2D6) [nM]	pKa (Base 1) [1, 7]
C[C@](CN)(Cc1cccnc1)c1ccc2ccccc2c1 [Compound 42]	3400	27000	9.2	5.2	89.5	0.3	3.2	1100	–
CNC[C@@H](Cc1ccc(C)s1)c1ccc2ccccc2c1 [Compound 44]	8000	3300	10	–	74.1	12.2	3.3	1000	–
CNCC(Cc1cccnc1)c1ccc2ccccc2c1 (centres unmarked) [Compound 48]	15000	33000	9.9	–	78	2.3	3.8	580	–
CNC[C@@H](c1ccc2ccccc2c1)[C@@H](O)c1cccnc1 [Compound 49]	20000	25000	9.6	5.1	213	5.6	3.8	1700	–
CNCC(Cc1ccccc1O)c1ccc2ccccc2c1 (centres unmarked) [Compound 52]	20000	12000	10	–	26.7	20.4	4.1	900	–
CNCC(Cc1ccccc1OC)c1ccc2ccccc2c1 (centres unmarked) [Compound 57]	3300	4700	10.1	–	20.2	5.9	5	190	–
CNC[C@H](c1ccc2ccccc2c1)[C@@H](O)c1ccccc1F [Compound 60]	20000	28000	9.7	–	83.2	10.7	5.3	560	–
CNC[C@H](c1ccc2ccccc2c1)[C@@H](Cl)c1ccccc1 [Compound 61]	20000	9800	9.5	–	14.6	0.9	5.8	300	–
CNC[C@H](c1ccc(Cl)c(Cl)c1)[C@@H](O)c1ccccc1[N+](=O)[O-] [Compound 65]	7800	19000	9.3	–	18.1	243	7.5	43	–
CNCC(CCc1ccccc1)[C@H](O)c1ccccc1 (some centres unmarked) [Compound 66]	20000	15000	10.1	–	28.9	46.7	8.1	260	–
CNC[C@H](c1ccc2ccccc2c1)[C@H](OCc1nc(C)no1)c1ccccc1 [Compound 67]	20000	15000	9.6	–	69.7	0.7	8.2	330	–
CNCC(Cc1ccccc1O)c1ccc2ccccc2c1 (centres unmarked) [Compound 69]	20000	9500	–	–	21.9	21.2	9	510	10
CNC[C@H](c1ccc(Cl)c(Cl)c1)[C@@H](O)c1ccccc1 [Compound 70]	20000	31000	9.4	–	48.5	142	9.5	220	–
CNCC(Cc1cccnc1)c1ccc2ccccc2c1 (centres unmarked) [Compound 74]	8100	20000	–	5.2	109	13.6	10.3	790	9.9
CNC[C@H](c1ccc(Cl)c(Cl)c1)[C@H](O)c1cccc(Br)c1 [Compound 76]	3600	3000	9.4	–	21.2	222	11.9	140	–
CNC[C@@H](c1ccc2ccccc2c1)[C@@H](O)c1ccccc1F [Compound 78]	20000	12000	9.7	–	26.1	15.3	14.3	1100	–
CN(C)C[C@H](c1ccc2ccccc2c1)[C@H](N)c1ccccc1 [Compound 82]	20000	19000	9	8.3	9.8	15.3	15.3	990	–
CNCC(C[C@H](O)c1ccccc1)c1ccc2ccccc2c1 (some centres unmarked) [Compound 85]	20000	21000	10.1	–	247	16.1	16.4	1000	–
CN(C)CC(C)(c1ccc2ccccc2c1)C(O)c1ccccc1 (centres unmarked) [Compound 86]	20000	850	9.2	–	9.9	2.7	16.7	290	–
CNC[C@H](c1ccc2ccccc2c1)[C@H](N)c1ccccc1 [Compound 87]	940	17000	9.8	8.5	114	6.1	18.1	66	–
CN(C)C[C@H](c1ccc2ccccc2c1)[C@H](OCCO)c1ccccc1 [Compound 89]	20000	6600	8.9	–	25	1.8	21.4	1800	–
CNC[C@H](c1ccc2ccccc2c1)[C@H](O)c1cncc(OC)c1 [Compound 92]	20000	33000	9.6	4.5	216	9.3	28	810	–
CNC[C@H](c1ccc(Cl)c(Cl)c1)[C@@H](O)c1cccc(NC(C)=O)c1 [Compound 94]	18000	33000	9.4	–	52.6	367	32.8	3000	–
